Assay results published in ChEMBL document CHEMBL1129021, “Synthesis and biological evaluation of the L-enantiomer of 2-deoxy-5-ethyl-4-thiouridine” (Bioorg Med Chem Lett, 1996).

Key:
Type in all cases: functional, organism-based
Human betaherpesvirus 5 = assay: Compound was evaluated for the antiviral activity against human cytomegalo virus(HCMV)
[1] = test system: Human immunodeficiency virus 1; assay: Compound was evaluated for the antiviral activity against human immunodeficiency virus-1(HIV-1)
Human alphaherpesvirus 3 = assay: Compound was evaluated for the antiviral activity against varicella zoster virus(VZV)
Human alphaherpesvirus 2 = assay: Compound was evaluated for the antiviral activity against herpes simplex virus-2(HSV-2)

SMILES: CCc1cn([C@@H]2C[C@@H](O)[C@H](CO)S2)c(=O)[nH]c1=O
- IC50 (Human betaherpesvirus 5): > 100 µM
- IC50 [1]: > 50 µM
- IC50 (Human alphaherpesvirus 3): > 40 µM
- IC50 (Human alphaherpesvirus 2): > 50 µM

SMILES: CCc1cn([C@H]2C[C@H](O)[C@@H](CO)S2)c(=O)[nH]c1=O
- IC50 (Human betaherpesvirus 5): > 100 µM
- IC50 [1]: > 100 µM
- IC50 (Human alphaherpesvirus 3): 0.76 µM
- IC50 (Human alphaherpesvirus 2): 2.3 µM
